Measured values published in patent publication US9821000B2, “Compounds, compositions and corresponding uses for preventing and/or treating of dyslipidemia” (CENTRE NATIONAL DE LA RECHERCHE SCIENTIFIQUE (CNRS), priority 2013, dated 2017).

Tested on: BRIN-BD11 pancreatic β-cells
Assay: Cell viability test (propidium iodide, flow cytometry) of pancreatic β-cells lipo-intoxicated by palmitic acid
Type: cell-based, rat
Settings: BRIN-BD11, palmitic acid 200 μM, growing concentrations of compound
Protocol: The BRIN-BD11 pancreatic β-cells were cultivated in controlled conditions or in the presence of an exogenous source of saturated fatty acids (palmitic acid 200 μM), as described by Dhayal& Morgan (2011) in order to generate conditions of lipotoxicity with or without addition of OAG or LPA.
FIG. 7A—The proportion of dead cells was estimated in the absence (Ctrl) or in the presence of palmitic acid (Palm), for growing concentrations of OAG and LPA.
The lipidic species are prepared in ethanol and then complexed with bovine serum albumen (BSA initially devoid of fatty acids) by incubation for one hour at 37° C. […]
The pancreatic β-cell cell line (BRIN-BD11) of rats is cultivated in an RPMI-1640 complete medium containing glucose at 11 mM and supplemented with 10% (v/v) of fetal calf serum (FCS), 2 mM of L-glutamine, 100 U/mL of penicillin and 100 μg/mL of streptomycin. […] In the case of the controlled conditions, identical quantities of BSA and ethanol were then used. […] After incubation at 10 minutes on ice, the samples thus obtained are analyzed by cytometry in flux. A Beckman Coulter EPICS XL MCL is used for quantification, an FL3 channel serves to detect emissions from PI interposed in the DNA and the analysis is done by means of the software EXPO32 ADC (Applied Cytometry Systems, V 1.1 build 207).

| SMILES | apoptosis (proportion of dead cells) of pancreatic β-cells in the presence of saturated fatty acids |
| --- | --- |
| CCCCCCCC/C=C\CCCCCCCC(=O)OC[C@H](CO)OC(C)=O [OAG, 1-oleoyl-2-acetyl-sn-glycerol] | prevent apoptosis |
| CCCCCCCC/C=C\CCCCCCCC(=O)OC[C@@H](O)COP(=O)(O)O [LPA, 1-oleoyl-sn-glycerol-3-phosphate] | prevent apoptosis |
